The subject of the experiment is LNCaP cells. Put plainly: LNCaP cell viability assay (MTS). The note with it: Homo sapiens, LNCaP cell line. The class given is cell-based. The essentials: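 LNCaP cells (5000/well) treated 24 h after plating with compound at 1–80 µM for 48 h. Relative cell number read by MTS; GI50 from four-parameter variable-slope log(inhibitor) fit with bottom constrained to zero.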

This passage reports GI50 results from patent US20240174603A1 (Rappta Therapeutics Oy, priority 2021, published 2024).

On to `NC[C@@H](NS(=O)(=O)c1ccc(OC(F)(F)F)cc1)c1ccccc1` [Compound 117, (S)—N-(2-amino-1-phenylethyl)-4-(trifluoromethoxy)benzenesulfonamide], for which halving of growth (LNCaP, 48 h) (GI50) required 55 µM.

For the compound `CCCOC1CCN(CC(NS(=O)(=O)c2ccc(OC(F)(F)F)cc2)c2ccccc2)CC1` (stereo not shown) [Compound 118, N-(1-phenyl-2-(4-propoxypiperidin-1-yl)ethyl)-4-(trifluoromethoxy)benzenesulfonamide], the GI50 – broadly, the concentration at which growth is held to half of that of the control – (LNCaP, 48 h) was 42.4 µM.

As for `Cc1cccc(C(CN(C)C)NS(=O)(=O)c2ccc(OC(F)(F)F)cc2)c1` (stereo not shown) [Compound 119, N-(2-(dimethylamino)-1-(m-tolyl)ethyl)-4-(trifluoromethoxy)benzenesulfonamide], the GI50 (LNCaP, 48 h) was found to be 48.5 µM.

For the setting “LNCaP, 48 h”, `CN(C)CC(NS(=O)(=O)c1ccc(OC(F)(F)F)cc1)c1cccc(C(F)(F)F)c1` (stereo not shown) [Compound 120, N-(2-(dimethylamino)-1-(3-(trifluoromethyl)phenyl)ethyl)-4-(trifluoromethoxy)benzenesulfonamide] showed a GI50 of 46.3 µM.

`O=S(=O)(N[C@@H](CO)c1ccc(Cl)c(Cl)c1)c1ccc(OC(F)(F)F)cc1` [Compound 121, (R)—N-(1-(3,4-dichlorophenyl)-2-hydroxyethyl)-4-(trifluoromethoxy)benzenesulfonamide] displayed a GI50 (LNCaP, 48 h) of 40.2 µM.

In turn, `O=S(=O)(N[C@H](CO)c1ccc(Cl)c(Cl)c1)c1ccc(OC(F)(F)F)cc1` [Compound 122, (S)—N-(1-(3,4-dichlorophenyl)-2-hydroxyethyl)-4-(trifluoromethoxy)benzenesulfonamide] registered a GI50 (LNCaP, 48 h) of 43.4 µM.

The compound `Cc1ccc(C(CN(C)C)NS(=O)(=O)c2ccc(OC(F)(F)F)cc2)cc1` (stereo not shown) [Compound 123, N-(2-(dimethylamino)-1-(p-tolyl)ethyl)-4-(trifluoromethoxy)benzenesulfonamide] displayed a 50% growth inhibitory concentration (GI50) (LNCaP, 48 h) of 45.2 µM.

`Cn1ccc(S(=O)(=O)NCC(NS(=O)(=O)c2ccc(OC(F)(F)F)cc2)c2ccccc2)c1` (stereo not shown) [Compound 124, 1-methyl-N-(2-phenyl-2-((4-(trifluoromethoxy)phenyl)sulfonamido)ethyl)-1H-pyrrole-3-sulfonamide] displayed a GI50 (LNCaP, 48 h) of 49.7 µM.

In the case of `CN(C)CC(NS(=O)(=O)c1ccc(OC(F)(F)F)cc1)c1ccc(Cl)cc1` (stereo not shown) [Compound 125, N-(1-(4-chlorophenyl)-2-(dimethylamino)ethyl)-4-(trifluoromethoxy)benzenesulfonamide], the GI50 (LNCaP, 48 h) amounted to 57 µM.

`CN=S(=O)(NC(CN(C)C)c1ccc(Cl)c(Cl)c1)c1ccc(OC(F)(F)F)cc1` (stereo not shown) [Compound 126, N-(1-(3,4-dichlorophenyl)-2-(dimethylamino)ethyl)-N′-methyl-4-(trifluoromethoxy)benzenesulfonimidamide] gave a GI50 (LNCaP, 48 h) of 24.9 µM.

Where the note is “LNCaP, 48 h”, `CNS(=O)(=NC(CN(C)C)c1ccc(Cl)c(Cl)c1)c1ccc(OC(F)(F)F)cc1` (stereo not shown) [Compound 127, N′-(1-(3,4-dichlorophenyl)-2-(dimethylamino)ethyl)-N-methyl-4-(trifluoromethoxy)benzenesulfonimidamide] showed a GI50 of 51.9 µM.

The compound `CN(C)CC(NS(=O)(=O)c1cccc(OC(F)(F)F)c1)c1ccc(Cl)c(Cl)c1` (stereo not shown) [Compound 128, N-(1-(3,4-dichlorophenyl)-2-(dimethylamino)ethyl)-3-(trifluoromethoxy)benzenesulfonamide] registered a GI50 (LNCaP, 48 h) of 21.1 µM.

Turning to `CN(C)CC(NS(=O)(=O)c1cccc(F)c1)c1ccc(Cl)c(Cl)c1` (stereo not shown) [Compound 129, N-(1-(3,4-dichlorophenyl)-2-(dimethylamino)ethyl)-3-fluorobenzenesulfonamide], growth (LNCaP, 48 h) was halved (GI50) at 69.9 µM.

The compound `CN(C)CC(NS(=O)(=O)c1ccc(F)cc1)c1ccc(Cl)c(Cl)c1` (stereo not shown) [Compound 130, N-(1-(3,4-dichlorophenyl)-2-(dimethylamino)ethyl)-4-fluorobenzenesulfonamide] gave a GI50 (LNCaP, 48 h) of 62.4 µM.

For the compound `Cc1ccccc1S(=O)(=O)NC(CN(C)C)c1ccc(Cl)c(Cl)c1` (stereo not shown) [Compound 131, N-(1-(3,4-dichlorophenyl)-2-(dimethylamino)ethyl)-2-methylbenzenesulfonamide], it took 49 µM to inhibit growth (LNCaP, 48 h) by half (GI50).

With `Cc1cccc(S(=O)(=O)NC(CN(C)C)c2ccc(Cl)c(Cl)c2)c1` (stereo not shown) [Compound 132, N-(1-(3,4-dichlorophenyl)-2-(dimethylamino)ethyl)-3-methylbenzenesulfonamide], the GI50 (LNCaP, 48 h) came out at 40.5 µM.

In turn, `Cc1ccc(S(=O)(=O)NC(CN(C)C)c2ccc(Cl)c(Cl)c2)cc1` (stereo not shown) [Compound 133, N-(1-(3,4-dichlorophenyl)-2-(dimethylamino)ethyl)-4-methylbenzenesulfonamide] yielded a GI50 (LNCaP, 48 h) of 51.8 µM.

The compound `CN(C)CC(NS(=O)(=O)c1cc(F)cc(F)c1)c1ccc(Cl)c(Cl)c1` (stereo not shown) [Compound 134, N-(1-(3,4-dichlorophenyl)-2-(dimethylamino)ethyl)-3,5-difluorobenzenesulfonamide] displayed a GI50 (LNCaP, 48 h) of 75.6 µM.

`CN(C)CC(NS(=O)(=O)C1CCCCC1)c1ccc(Cl)c(Cl)c1` (stereo not shown) [Compound 135, N-(1-(3,4-dichlorophenyl)-2-(dimethylamino)ethyl)cyclohexanesulfonamide] came in with a GI50 (LNCaP, 48 h) of 57.3 µM.

Turning to `CN(C)CC(NS(=O)(=O)CCc1ccccc1)c1ccc(Cl)c(Cl)c1` (stereo not shown) [Compound 136, N-(1-(3,4-dichlorophenyl)-2-(dimethylamino)ethyl)-2-phenylethane-1-sulfonamide], for the setting “LNCaP, 48 h”, the GI50 was found to be 24.3 µM.

Compound `CCCc1ccc(S(=O)(=O)NC(CN(C)C)c2ccc(Cl)c(Cl)c2)cc1` (stereo not shown) [Compound 137, N-(1-(3,4-dichlorophenyl)-2-(dimethylamino)ethyl)-4-propylbenzenesulfonamide] came in with a GI50 (LNCaP, 48 h) of 12.3 µM.

In turn, `CN(C)CC(NS(=O)(=O)c1ccc(Oc2ccccc2)cc1)c1ccc(Cl)c(Cl)c1` (stereo not shown) [Compound 138, N-(1-(3,4-dichlorophenyl)-2-(dimethylamino)ethyl)-4-phenoxybenzenesulfonamide] returned a GI50 (LNCaP, 48 h) of 10.5 µM.

Where the note is “LNCaP, 48 h”, `CN(C)CC(NS(=O)(=O)c1ccc(Oc2ccc(C(F)(F)F)cc2)cc1)c1ccc(Cl)c(Cl)c1` (stereo not shown) [Compound 139, N-(1-(3,4-dichlorophenyl)-2-(dimethylamino)ethyl)-4-(4-(trifluoromethyl)phenoxy)benzenesulfonamide] yielded a GI50 of 10.2 µM.

With `CN(C)CC(NS(=O)(=O)c1ccc(-c2ccccc2)cc1)c1ccc(Cl)c(Cl)c1` (stereo not shown) [Compound 143, N-(1-(3,4-dichlorophenyl)-2-(dimethylamino)ethyl)-[1,1′-biphenyl]-4-sulfonamide], for the setting “LNCaP, 48 h”, the GI50 turned out to be 11.2 µM.

In turn, `CN(C)CC(NS(=O)(=O)c1cccc(-c2ccccc2)c1)c1ccc(Cl)c(Cl)c1` (stereo not shown) [Compound 144, N-(1-(3,4-dichlorophenyl)-2-(dimethylamino)ethyl)-[1,1′-biphenyl]-3-sulfonamide] displayed a GI50 (LNCaP, 48 h) of 14.4 µM.

Under “LNCaP, 48 h”, `CN(C)CC(NS(=O)(=O)c1cccc2ccccc12)c1ccc(Cl)c(Cl)c1` (stereo not shown) [Compound 145, N-(1-(3,4-dichlorophenyl)-2-(dimethylamino)ethyl)naphthalene-1-sulfonamide] gave a GI50 of 21.7 µM.

In the case of `CN(C)CC(NS(=O)(=O)c1ccc2ccccc2c1)c1ccc(Cl)c(Cl)c1` (stereo not shown) [Compound 146, N-(1-(3,4-dichlorophenyl)-2-(dimethylamino)ethyl)naphthalene-2-sulfonamide], the GI50 (LNCaP, 48 h) worked out at 23.8 µM.

Regarding `CN(C)CC(NS(=O)(=O)c1ccc(OC(F)(F)F)cc1)c1ccc(Cl)c(Cl)c1` (stereo not shown) [Compound 147, N-(1-(3,4-dichlorophenyl)-2-(dimethylamino)ethyl)-4-(trifluoromethoxy)benzenesulfonamide], under “LNCaP, 48 h”, growth was halved (GI50) at 19.5 µM.

`Cc1ccccc1C(CN(C)C)NS(=O)(=O)c1ccc(OC(F)(F)F)cc1` (stereo not shown) [Compound 150, N-(2-(dimethylamino)-1-(o-tolyl)ethyl)-4-(trifluoromethoxy)benzenesulfonamide]: growth (LNCaP, 48 h) was halved (GI50) at 59.6 µM.

The compound `CN(C)CC(NS(=O)(=O)c1ccc(OC(F)(F)F)cc1Cl)c1ccc(Cl)c(Cl)c1` (stereo not shown) [Compound 151, 2-chloro-N-(1-(3,4-dichlorophenyl)-2-(dimethylamino)ethyl)-4-(trifluoromethoxy)benzenesulfonamide] returned a GI50 (LNCaP, 48 h) of 23.6 µM.

Regarding `CN(C)CC(NS(=O)(=O)c1ccc(OC(F)(F)F)c(Cl)c1)c1ccc(Cl)c(Cl)c1` (stereo not shown) [Compound 152, 3-chloro-N-(1-(3,4-dichlorophenyl)-2-(dimethylamino)ethyl)-4-(trifluoromethoxy)benzenesulfonamide], under “LNCaP, 48 h”, the GI50 came out at 12.1 µM.

On to `CN(C)CC(NS(=O)(=O)c1ccc(OC(F)F)cc1)c1ccc(Cl)c(Cl)c1` (stereo not shown) [Compound 153, N-(1-(3,4-dichlorophenyl)-2-(dimethylamino)ethyl)-4-(difluoromethoxy)benzenesulfonamide], for which growth (LNCaP, 48 h) was halved (GI50) at 45.7 µM.

`CN(C)CC(NS(=O)(=O)c1ccc(OC2CC2)cc1)c1ccc(Cl)c(Cl)c1` (stereo not shown) [Compound 154, 4-cyclopropoxy-N-(1-(3,4-dichlorophenyl)-2-(dimethylamino)ethyl)benzenesulfonamide]: it took 53.8 µM to inhibit growth (48 hours) by half (GI50).

In the case of `CN(C)CC(NS(=O)(=O)c1ccc(OC(F)(F)F)cc1N)c1ccc(Cl)c(Cl)c1` (stereo not shown) [Compound 155, 2-amino-N-(1-(3,4-dichlorophenyl)-2-(dimethylamino)ethyl)-4-(trifluoromethoxy)benzenesulfonamide], halving of growth (LNCaP, 48 h) (GI50) required 21.3 µM.

Turning to `CN(C)CC(NS(=O)(=O)c1ccc2c(c1)OC(F)(F)O2)c1ccc(Cl)c(Cl)c1` (stereo not shown) [Compound 156, N-(1-(3,4-dichlorophenyl)-2-(dimethylamino)ethyl)-2,2-difluorobenzo[d][1,3]dioxole-5-sulfonamide], the GI50 (LNCaP, 48 h) turned out to be 24.9 µM.

Consider `CN(C)CC(NS(=O)(=O)c1ccc(OC(F)(F)F)nc1)c1ccc(Cl)c(Cl)c1` (stereo not shown) [Compound 157, N-(1-(3,4-dichlorophenyl)-2-(dimethylamino)ethyl)-6-(trifluoromethoxy)pyridine-3-sulfonamide], for which growth (48 hours) was halved (GI50) at 17.7 µM.

On to `CN(C)CC(NS(=O)(=O)c1ccc(Cl)cc1F)c1ccc(Cl)c(Cl)c1` (stereo not shown) [Compound 160, 4-chloro-N-(1-(3,4-dichlorophenyl)-2-(dimethylamino)ethyl)-2-fluorobenzenesulfonamide], for which the GI50 (LNCaP, 48 h) came out at 58.5 µM.
